Assay: Safety and tolerability
Format: in vivo, healthy participants (human)
Settings: healthy adults, single oral dose
[1] = safety analysis set, by system organ class

Structure (SMILES): C=CC[C@@H]1/C=C(\C)C[C@H](C)C[C@H](OC)[C@H]2O[C@@](O)(C(=O)C(=O)N3CCCC[C@H]3C(=O)O[C@H](/C(C)=C/[C@@H]3CC[C@@H](O)[C@H](OC)C3)[C@H](C)[C@@H](O)CC1=O)[C@H](C)C[C@@H]2OC [Tacrolimus, tacrolimus]
- participants in whom adverse events were reported: seven
- Participants with any AE (safety analysis set, N as in column head): 7 (22.6) n (%)
- Participants with AEs: Cardiac disorders [1]: 0 n (%)
- Participants with AEs: Eye disorders [1]: 1 (3.2) n (%)
- Participants with AEs: Gastrointestinal disorders [1]: 2 (6.5) n (%)
- Participants with AEs: General disorders and administration site conditions [1]: 1 (3.2) n (%)
- Participants with AEs: Infections and infestations [1]: 0 n (%)
- Participants with AEs: Injury, poisoning and procedural complications [1]: 1 (3.2) n (%)
- Participants with AEs: Musculoskeletal and connective tissue disorders [1]: 1 (3.2) n (%)
- Participants with AEs: Nervous system disorders [1]: 3 (9.7) n (%)
- Participants with AEs: Renal and urinary disorders [1]: 0 n (%)
- Participants with AEs: Respiratory, thoracic and mediastinal disorders [1]: 0 n (%)
